Measured values reported in PubChem BioAssay (NCI).
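Method: 48-hour compound exposure of cells in 96-well plates, five concentrations, linear interpolation of endpoints. At the TGI there is no net growth.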

Legend:
Test in all cases: inhibition of tumour cell growth, NCI panel, 48 h
786-0 renal = system: 786-0 renal
A498 renal = system: A498 renal
A549 NSCLC = system: A549 NSCLC
ACHN renal = system: ACHN renal
BT-549 breast = system: BT-549 breast
CAKI-1 renal = system: CAKI-1 renal
CCRF-CEM leukemia = system: CCRF-CEM leukemia
COLO 205 colon = system: COLO 205 colon
DU-145 prostate = system: DU-145 prostate
EKVX NSCLC = system: EKVX NSCLC
HCC-2998 colon = system: HCC-2998 colon
HCT-116 colon = system: HCT-116 colon
HCT-15 colon = system: HCT-15 colon
HL-60(TB) leukemia = system: HL-60(TB) leukemia
HOP-92 NSCLC = system: HOP-92 NSCLC
HS 578T breast = system: HS 578T breast
HT29 colon = system: HT29 colon
IGROV1 ovarian = system: IGROV1 ovarian
K-562 leukemia = system: K-562 leukemia
KM12 colon = system: KM12 colon
M14 melanoma = system: M14 melanoma
MALME-3M melanoma = system: MALME-3M melanoma
MCF7 breast = system: MCF7 breast
MDA-MB-231 breast = system: MDA-MB-231 breast
MDA-MB-435 = system: MDA-MB-435
MDA-N = system: MDA-N
MOLT-4 leukemia = system: MOLT-4 leukemia
NCI-H226 lung = system: NCI-H226 lung
NCI-H23 lung = system: NCI-H23 lung
NCI-H460 lung = system: NCI-H460 lung
NCI-H522 lung = system: NCI-H522 lung
NCI/ADR-RES ovarian = system: NCI/ADR-RES ovarian
OVCAR-3 ovarian = system: OVCAR-3 ovarian
OVCAR-4 ovarian = system: OVCAR-4 ovarian
OVCAR-5 ovarian = system: OVCAR-5 ovarian
OVCAR-8 ovarian = system: OVCAR-8 ovarian
PC-3 prostate = system: PC-3 prostate
RPMI-8226 leukemia = system: RPMI-8226 leukemia
RXF 393 renal = system: RXF 393 renal
SF-268 CNS = system: SF-268 CNS
SF-295 CNS = system: SF-295 CNS
SF-539 CNS = system: SF-539 CNS
SK-MEL-2 melanoma = system: SK-MEL-2 melanoma
SK-MEL-28 melanoma = system: SK-MEL-28 melanoma
SK-MEL-5 melanoma = system: SK-MEL-5 melanoma
SK-OV-3 ovarian = system: SK-OV-3 ovarian
SN12C renal = system: SN12C renal
SNB-19 CNS = system: SNB-19 CNS
SNB-75 CNS = system: SNB-75 CNS
SR leukemia = system: SR leukemia
SW-620 colon = system: SW-620 colon
T-47D breast = system: T-47D breast
TK-10 renal = system: TK-10 renal
U251 CNS = system: U251 CNS
UACC-257 melanoma = system: UACC-257 melanoma
UACC-62 melanoma = system: UACC-62 melanoma
UO-31 renal = system: UO-31 renal
HOP-62 NSCLC = system: HOP-62 NSCLC
LOX IMVI melanoma = system: LOX IMVI melanoma

Molecule `Nc1nnc(-c2ccco2)c(-c2ccco2)n1` has a TGI (786-0 renal) greater than 100 µM, a TGI (A498 renal) greater than 100 µM and a TGI (A549 NSCLC) greater than 100 µM. For the same molecule, the TGI (ACHN renal) was greater than 100 µM, the TGI (BT-549 breast) was greater than 100 µM and the TGI (CAKI-1 renal) was greater than 100 µM. It also gave a TGI (CCRF-CEM leukemia) greater than 100 µM, a TGI (COLO 205 colon) greater than 100 µM and a TGI (DU-145 prostate) greater than 100 µM. The TGI (EKVX NSCLC) was greater than 100 µM, the TGI (HCC-2998 colon) was greater than 100 µM and the TGI (HCT-116 colon) was greater than 100 µM. It also gave a TGI (HCT-15 colon) greater than 100 µM, a TGI (HL-60(TB) leukemia) greater than 100 µM and a TGI (HOP-92 NSCLC) greater than 100 µM. For the same molecule, the TGI (HS 578T breast) was greater than 100 µM, the TGI (HT29 colon) was greater than 100 µM and the TGI (IGROV1 ovarian) was greater than 100 µM. For the same molecule, the TGI (K-562 leukemia) was greater than 100 µM, the TGI (KM12 colon) was greater than 100 µM and the TGI (M14 melanoma) was greater than 100 µM. The TGI (MALME-3M melanoma) was greater than 100 µM, the TGI (MCF7 breast) was greater than 100 µM and the TGI (MDA-MB-231 breast) was greater than 100 µM. It also gave a TGI (MDA-MB-435) greater than 100 µM, a TGI (MDA-N) greater than 100 µM and a TGI (MOLT-4 leukemia) greater than 100 µM. The TGI (NCI-H226 lung) was greater than 100 µM, the TGI (NCI-H23 lung) was greater than 100 µM and the TGI (NCI-H460 lung) was greater than 100 µM. For the same molecule, the TGI (NCI-H522 lung) was greater than 100 µM, the TGI (NCI/ADR-RES ovarian) was greater than 100 µM and the TGI (OVCAR-3 ovarian) was greater than 100 µM. It also gave a TGI (OVCAR-4 ovarian) greater than 100 µM, a TGI (OVCAR-5 ovarian) greater than 100 µM and a TGI (OVCAR-8 ovarian) greater than 100 µM. For the same molecule, the TGI (PC-3 prostate) was greater than 100 µM, the TGI (RPMI-8226 leukemia) was greater than 100 µM and the TGI (RXF 393 renal) was greater than 100 µM. For the same molecule, the TGI (SF-268 CNS) was greater than 100 µM, the TGI (SF-295 CNS) was greater than 100 µM and the TGI (SF-539 CNS) was greater than 100 µM. It also gave a TGI (SK-MEL-2 melanoma) greater than 100 µM, a TGI (SK-MEL-28 melanoma) greater than 100 µM and a TGI (SK-MEL-5 melanoma) greater than 100 µM. The TGI (SK-OV-3 ovarian) was greater than 100 µM, the TGI (SN12C renal) was greater than 100 µM and the TGI (SNB-19 CNS) was greater than 100 µM. It also gave a TGI (SNB-75 CNS) greater than 100 µM, a TGI (SR leukemia) greater than 100 µM and a TGI (SW-620 colon) greater than 100 µM. The TGI (T-47D breast) was greater than 100 µM, the TGI (TK-10 renal) was greater than 100 µM and the TGI (U251 CNS) was greater than 100 µM. It also gave a TGI (UACC-257 melanoma) greater than 100 µM, a TGI (UACC-62 melanoma) greater than 100 µM and a TGI (UO-31 renal) greater than 100 µM.

`Nc1ccc(S(=O)(=O)c2ccc(NC(=O)c3cccnc3)cc2)cc1` gave a TGI (786-0 renal) greater than 100 µM, a TGI (A498 renal) greater than 100 µM and a TGI (A549 NSCLC) greater than 100 µM. For the same molecule, the TGI (ACHN renal) was greater than 100 µM, the TGI (BT-549 breast) was greater than 100 µM and the TGI (CAKI-1 renal) was greater than 100 µM. For the same molecule, the TGI (COLO 205 colon) was greater than 100 µM, the TGI (DU-145 prostate) was greater than 100 µM and the TGI (EKVX NSCLC) was greater than 100 µM. It also gave a TGI (HCC-2998 colon) greater than 100 µM, a TGI (HCT-116 colon) greater than 100 µM and a TGI (HCT-15 colon) greater than 100 µM. The TGI (HL-60(TB) leukemia) was greater than 100 µM, the TGI (HOP-62 NSCLC) was greater than 100 µM and the TGI (HOP-92 NSCLC) was greater than 100 µM. For the same molecule, the TGI (HS 578T breast) was greater than 100 µM, the TGI (HT29 colon) was greater than 100 µM and the TGI (IGROV1 ovarian) was greater than 100 µM. It also gave a TGI (K-562 leukemia) greater than 100 µM, a TGI (KM12 colon) greater than 100 µM and a TGI (LOX IMVI melanoma) greater than 100 µM. It also gave a TGI (M14 melanoma) greater than 100 µM, a TGI (MALME-3M melanoma) greater than 100 µM and a TGI (MCF7 breast) greater than 100 µM. The TGI (MDA-MB-231 breast) was greater than 100 µM, the TGI (MDA-MB-435) was greater than 100 µM and the TGI (MDA-N) was greater than 100 µM. The TGI (MOLT-4 leukemia) was greater than 100 µM, the TGI (NCI-H226 lung) was greater than 100 µM and the TGI (NCI-H23 lung) was greater than 100 µM. The TGI (NCI-H460 lung) was greater than 100 µM, the TGI (NCI-H522 lung) was greater than 100 µM and the TGI (NCI/ADR-RES ovarian) was greater than 100 µM. For the same molecule, the TGI (OVCAR-3 ovarian) was greater than 100 µM, the TGI (OVCAR-4 ovarian) was greater than 100 µM and the TGI (OVCAR-5 ovarian) was greater than 100 µM. It also gave a TGI (OVCAR-8 ovarian) greater than 100 µM, a TGI (PC-3 prostate) greater than 100 µM and a TGI (RPMI-8226 leukemia) greater than 100 µM. The TGI (RXF 393 renal) was greater than 100 µM, the TGI (SF-268 CNS) was greater than 100 µM and the TGI (SF-295 CNS) was greater than 100 µM. It also gave a TGI (SK-MEL-28 melanoma) greater than 100 µM, a TGI (SK-MEL-5 melanoma) greater than 100 µM and a TGI (SK-OV-3 ovarian) greater than 100 µM. It also gave a TGI (SN12C renal) greater than 100 µM, a TGI (SNB-19 CNS) greater than 100 µM and a TGI (SNB-75 CNS) greater than 100 µM. The TGI (SW-620 colon) was greater than 100 µM, the TGI (T-47D breast) was greater than 100 µM and the TGI (TK-10 renal) was greater than 100 µM. It also gave a TGI (U251 CNS) greater than 100 µM, a TGI (UACC-257 melanoma) greater than 100 µM and a TGI (UACC-62 melanoma) greater than 100 µM. For the same molecule, the TGI (UO-31 renal) was greater than 100 µM.

`CSc1c(C(=O)Nc2ccc(Cl)cc2)c(N)[nH]c(=O)c1C#N` gave a TGI (786-0 renal) of 77.9 µM, a TGI (A498 renal) of 62.1 µM and a TGI (A549 NSCLC) greater than 100 µM. For the same molecule, the TGI (ACHN renal) was greater than 100 µM, the TGI (BT-549 breast) was greater than 91.1 µM and the TGI (CAKI-1 renal) was greater than 61.1 µM. It also gave a TGI (CCRF-CEM leukemia) greater than 100 µM, a TGI (COLO 205 colon) of 45.8 µM and a TGI (DU-145 prostate) greater than 100 µM. It also gave a TGI (EKVX NSCLC) greater than 80 µM, a TGI (HCC-2998 colon) greater than 90.2 µM and a TGI (HCT-116 colon) of 44.3 µM. The TGI (HCT-15 colon) was greater than 100 µM, the TGI (HL-60(TB) leukemia) was greater than 100 µM and the TGI (HOP-62 NSCLC) was 73 µM. It also gave a TGI (HOP-92 NSCLC) of 59.9 µM, a TGI (HS 578T breast) greater than 100 µM and a TGI (HT29 colon) greater than 66.4 µM. It also gave a TGI (IGROV1 ovarian) greater than 100 µM, a TGI (K-562 leukemia) greater than 100 µM and a TGI (KM12 colon) greater than 100 µM. For the same molecule, the TGI (LOX IMVI melanoma) was greater than 25.8 µM, the TGI (M14 melanoma) was greater than 100 µM and the TGI (MALME-3M melanoma) was greater than 100 µM. It also gave a TGI (MCF7 breast) greater than 78.6 µM, a TGI (MDA-MB-231 breast) greater than 60.9 µM and a TGI (MDA-MB-435) greater than 70.9 µM. It also gave a TGI (MDA-N) greater than 70 µM, a TGI (MOLT-4 leukemia) greater than 91.9 µM and a TGI (NCI-H226 lung) greater than 100 µM. The TGI (NCI-H23 lung) was 53.3 µM, the TGI (NCI-H460 lung) was greater than 100 µM and the TGI (NCI-H522 lung) was 51.7 µM. It also gave a TGI (NCI/ADR-RES ovarian) greater than 76.5 µM, a TGI (OVCAR-3 ovarian) of 63 µM and a TGI (OVCAR-4 ovarian) greater than 100 µM. It also gave a TGI (OVCAR-5 ovarian) greater than 89.2 µM, a TGI (OVCAR-8 ovarian) greater than 88.7 µM and a TGI (PC-3 prostate) of 47.7 µM. It also gave a TGI (RPMI-8226 leukemia) greater than 100 µM, a TGI (RXF 393 renal) greater than 96.3 µM and a TGI (SF-268 CNS) greater than 100 µM. For the same molecule, the TGI (SF-295 CNS) was 83.6 µM, the TGI (SF-539 CNS) was 68.9 µM and the TGI (SK-MEL-2 melanoma) was 32.2 µM. The TGI (SK-MEL-28 melanoma) was greater than 100 µM, the TGI (SK-MEL-5 melanoma) was 64.3 µM and the TGI (SK-OV-3 ovarian) was greater than 100 µM. The TGI (SN12C renal) was greater than 82.2 µM, the TGI (SNB-19 CNS) was greater than 100 µM and the TGI (SNB-75 CNS) was greater than 100 µM. The TGI (SR leukemia) was greater than 100 µM, the TGI (SW-620 colon) was greater than 100 µM and the TGI (T-47D breast) was greater than 83.3 µM. It also gave a TGI (TK-10 renal) greater than 100 µM, a TGI (U251 CNS) greater than 71.4 µM and a TGI (UACC-257 melanoma) greater than 93.7 µM. The TGI (UACC-62 melanoma) was greater than 100 µM and the TGI (UO-31 renal) was 59 µM.
